Earlier results on one compound are cited in patent publication US11903918B2, “Fumarate ester dosage forms with enhanced gastrointestinal tolerability” (BANNER LIFE SCIENCES LLC, priority 2020, dated 2024).

Counter-ions that a name gives are not always drawn.

Data set [1] concerns nuclear factor erythroid-derived 2-like (Nrf2) pathway. The settings on record: in vitro and in vivo in humans.

On to `COC(=O)/C=C/C(=O)OC` [dimethyl fumarate, dimethyl (E) butenedioate], for which the solubility in water result is recorded as “highly soluble in water”. Also, the “activation of the Nrf2 pathway” value in data set [1] is on record as “activate”.
